Tested on: asthma patients
Assay: In vivo FEV1 (bronchodilator) response to albuterol in asthma patients, by β2AR haplotype pair
Parameters: species or system human
Procedure: The patients in the asthma cohort were enrolled from an outpatient facility as described in detail elsewhere (Yan, L., Galinsky, R. E., Bernstein, J. A., Liggett, S. B. & Weinshilboum, R. M. (1999) Pharmacogenetics in Press). […] Forced expiratory volume in 1 second (FEV1) and forced vital capacity (FVC) were determined in triplicate. The predicted values for these measurements were calculated based on standard algorithms (Morris, J. F., Koski, A. & Johnson, L. C. (1971) Am Rev Respir Dis 103, 57-67).
The association between changes in % predicted FEV1 and haplotype pair was assessed by fitting an analysis of covariance model (ANCOVA) with terms for haplotype pair, sex and baseline severity. P-values from pairwise comparisons by haplotype pair were adjusted for multiple comparisons by applying the Holm-Sidak step-down procedure (Ludbrook, J. (1998) Clin and Exp Pharmacology & Physiology 25, 1032-1037.). […] In addition, the African-American asthma patients were excluded from the analysis due to the low number of individuals in this population group. For the analysis of individual SNPs, a similar ANCOVA model was employed with a discrete term for SNP genotype, and terms for sex and baseline severity. The Holm-Sidak step-down procedure was used to adjust the p-values from the individual SNP analyses for the number of tests performed.
Pairwise tests were made while correcting for multiple comparisons. […] For this analysis, a similar ANCOVA model as above was utilized. […] Since 0, 1 or 2 copies of these two haplotypes are present in our population as haplotype pairs 2/2, 2/4 and 4/4, a potential gene dose effect can be assessed by regression analysis.

## CC(C)(C)NCC(O)c1ccc(O)c(CO)c1 (centres unmarked) [albuterol]
Caucasian asthma patients with β2AR haplotype pair 4/4, spirometry before and 30 min after inhalation of 180 μg albuterol by nebulization
  change % FEV1 (change in % predicted FEV1): 8.53±1.78%
Asthmatic patients with β2AR haplotype pair 2/6
  bronchodilator response to albuterol: moderate bronchodilator response
Asthmatic patients with β2AR haplotype pairs 2/2 and 4/6
  bronchodilator response to albuterol: respond well
Asthmatic patients with β2AR haplotype pairs 2/4 and 4/4
  bronchodilator response to albuterol: little to no response
In vivo FEV1 response, individuals with haplotype pair 2/2 vs 4/4 (FIG. 5)
  greater response of haplotype pair 2/2 than haplotype pair 4/4: ~50%
